Reference: article PMC6791383, “A side-by-side evaluation of [^18F]FDOPA enantiomers for non-invasive detection of neuroendocrine tumors by positron emission tomography” (Oncotarget, 2019)

Experiments:
[1] = system: TGP52 cells; test: In vitro uptake (binding) assay in TGP52 cells; format: cell-based; conditions: 30mins incubation, 1 million cells, % incubated dose/million cells
Protocol: Both [^18F]FDOPA enantiomers were initially assessed in vitro in all NET cells.
In vitro binding assays were carried out, in triplicate, in PBS with 0.5% FBS, for 30mins at ambient temperatures using 1 million cells and repeated three times. Blocking studies were carried out using 10meq of the commercial LAT1 inhibitor, 2-Aminobicyclo[2.2.1]heptane-2-carboxylic acid (TOCRIS, MN, USA). Following incubation with each tracer, cells were rinsed three times with cold PBS prior to being counted on an automated gamma counter (1282 Compugamma CS; Pharmacia/LKBNuclear, Inc.) along with external standards. Obtained counts were converted into percentage incubated dose per million cells based on normalization to external standards. Experiments were performed in triplicate and repeated three times.

[2] = system: PC12 xenografts; test: Ex vivo biodistribution in NSG mice bearing PC12 xenografts; conditions: for Biodistribution, Bladder / Biodistribution, Blood / Biodistribution, Bone / Biodistribution, Brain / Biodistribution, Fat / Biodistribution, Heart / Biodistribution, Kidneys / Biodistribution, Liver / Biodistribution, Lungs / Biodistribution, Muscle / Biodistribution, Pancreas / Biodistribution, Small Intestines / Biodistribution, Spleen / Biodistribution, Stomach / Biodistribution, Tumor: PC12 xenograft NSG mice, 1.5MBq i.v.
Protocol: All animal studies were carried out according to regulations set forth and approved by the Johns Hopkins Animal Care and Use Committee. Female, 6- to 8-weeks-old immunodeficient NOD scid gamma (NSG) mice were subcutaneously inoculated with 1 million PC12, STC-1 or COLO-320 cells in […] of Hank’s balanced salt solution in the top flank. Tumors of 4–6 mm in diameter (typically 14-21 days post inoculation) were utilized for in vivo imaging or ex vivo biodistribution studies.
Mice (n=5 per group) were intravenously injected with 1.5MBq (40μCi) of each tracer in 150μL of saline. Ex vivo biodistribution studies were performed at 30min and 120min time points after tracer administration. Blood, liver, spleen, heart, lungs, kidneys, small intestines, stomach, muscle, fat, bone, bladder, brain and tumor tissues were retrieved, weighed, and counted in an automated gamma counter (1282 Compugamma CS). Percentage injected dose per gram (%ID/g) values were calculated based on normalization to external standards, counted in triplicate, and accounted for signal-decay correction.

Compound: N[C@H](Cc1cc(O)c(O)cc1[18F])C(=O)O [D-[^18F]FDOPA, 3,4-dihydroxy-6-[^18F]fluoro-D-phenylalanine]
- in vitro uptake [1]: 3.18±0.19%
- pancreatic retention, fold lower compared to L-[^18F]FDOPA ([2]; PC12 mice, 120min p.i.): ~11 fold
- Biodistribution, Bladder ([2]; 30min p.i.): 3.96 %ID/g
- Biodistribution, Blood ([2]; 30min p.i.): 2.52 %ID/g
- Biodistribution, Bone ([2]; 30min p.i.): 2.71 %ID/g
- Biodistribution, Brain ([2]; 30min p.i.): 0.19 %ID/g
- Biodistribution, Fat ([2]; 30min p.i.): 0.28 %ID/g
- Biodistribution, Heart ([2]; 30min p.i.): 1.28 %ID/g
- Biodistribution, Kidneys ([2]; 30min p.i.): 5.30 %ID/g
- Biodistribution, Liver ([2]; 30min p.i.): 3.05 %ID/g
- Biodistribution, Lungs ([2]; 30min p.i.): 3.53 %ID/g
- Biodistribution, Muscle ([2]; 30min p.i.): 0.79 %ID/g
- Biodistribution, Pancreas ([2]; 30min p.i.): 28.22 %ID/g
- Biodistribution, Small Intestines ([2]; 30min p.i.): 3.76 %ID/g
- Biodistribution, Spleen ([2]; 30min p.i.): 3.99 %ID/g
- Biodistribution, Stomach ([2]; 30min p.i.): 2.52 %ID/g
- Biodistribution, Tumor ([2]; 30min p.i.): 2.96 %ID/g
- Biodistribution, Bladder ([2]; 120min p.i.): 5.93 %ID/g
- Biodistribution, Blood ([2]; 120min p.i.): 0.48 %ID/g
- Biodistribution, Bone ([2]; 120min p.i.): 4.84 %ID/g
- Biodistribution, Brain ([2]; 120min p.i.): 0.23 %ID/g
- Biodistribution, Fat ([2]; 120min p.i.): 0.34 %ID/g
- Biodistribution, Heart ([2]; 120min p.i.): 0.84 %ID/g
- Biodistribution, Kidneys ([2]; 120min p.i.): 1.23 %ID/g
- Biodistribution, Liver ([2]; 120min p.i.): 0.73 %ID/g
- Biodistribution, Lungs ([2]; 120min p.i.): 2.04 %ID/g
- Biodistribution, Muscle ([2]; 120min p.i.): 1.02 %ID/g
- Biodistribution, Pancreas ([2]; 120min p.i.): 3.42 %ID/g
- Biodistribution, Small Intestines ([2]; 120min p.i.): 1.90 %ID/g
- Biodistribution, Spleen ([2]; 120min p.i.): 1.86 %ID/g
- Biodistribution, Stomach ([2]; 120min p.i.): 1.36 %ID/g
- Biodistribution, Tumor ([2]; 120min p.i.): 1.44 %ID/g
